Data on one compound can be found in US20250213560A1, “NITROGEN-CONTAINING HETEROCYCLIC COMPOUNDS HAVING PHENYL GROUP AND USES THEREOF” (BNH RESEARCH CO., LTD., priority 2022, published 2025).

“Also recorded” adds a separate entry of the source.

The test system of one data set is GluN2B. Description: GluN2B expression in SH-SY5Y cells. Format: cell-based, human. The settings on record: 1 μM, application for 6 and 24 hours. As for the experimental part:
Human undifferentiated neuroblastoma cell line SH-SY5Y and human embryonic kidney cell line (HEK)-293T were purchased from Korean Cell Line Bank (Korea) and Takara (Japan), respectively. Cells were grown in HyClone Minimal Essential Medium (MEM) and Dulbecco's Modified Eagle Medium (DMEM), respectively, supplemented with 10% (v/v) fetal bovine serum (FBS), penicillin (100 U/mL), and streptomycin ([…]). Cells were maintained in a humidified atmosphere of 95% air and 5% CO2 at 37° C. Cells were passaged 10 times at maximum. Cells were dissociated using 0.05% trypsin-EDTA solution and the cells were seeded in new culture dishes for maintenance.
RT-PCR was used to measure the amount of BDNF and GluN2B in response to compounds of the present disclosure. 293T cells were dissociated using 0.05% Trypsin-EDTA solution and seeded in 24 well or 6 well dishes for RNA work. After incubation at 37° C. in a humidified atmosphere with 5% CO2 for 24 hours, the culture medium was replaced by a medium containing a series of concentrations of tested compounds diluted with the DMEM without FBS. Time course experiments were performed. The same volume of DMSO was used for negative control.
Similarly, BnH12003 (1 μM) augmented BDNF and GluN2B expression by application for 6 and 24 hours in SH-SY5Y cells (FIGS. 11A and 11B).

In data set [1] the test system is rodent (rat) model of post-traumatic stress disorder. Nature of the data set: Post-traumatic stress disorder animal model, freezing time. It counts as in vivo. The settings on record: PTSD rats, intraperitoneal 25 mg/kg, checked at 3-day intervals, compared to control group. The procedure: The animals were obtained from the DBL. Animals are obtained 7 days before the test start. Twenty male SD-rats aged about 7 weeks were used. Animals were maintained in conventional environmental conditions according to the 12/12 hours light-dark cycle in the colony room, with access to food and water ad libitum. The rats were acclimatized to their new housing cage over a period of 7 days. The animals were carried out for all tests. All experiments were performed in accordance with the Guide for the Care and Use of Laboratory Animals, and all efforts were made to minimize animal suffering. Weight was measured at 3-day intervals from Day 7.
This protocol involves two times exposure to foot shock without an opportunity of escape.
The weight was measured three hours before the experiment. The temperature of the laboratory was maintained at 22° C. The animals were placed in the dark laboratory space for 10 minutes to adapt. The animals were each placed in the first room. […]
The weight was measured three hours before the experiment. […]
For the freezing check, 7 days after the initial foot shock protocol, the rats were placed in the first compartment with sandpaper of the apparatus for 5 minutes (no foot shock) and the freezing behavior was recorded using shutavoid_v1803 program (Panlab, Spain) according to the manufacturer's instruction. […]

The target in the next data set is T1, HDAC4 (Mus musculus, UniProt Q6NZM9).
T1 construct: Cortical tissue from mice was prepared according to protocol above then was homogenized and lysed for protein extraction; from tissue; host or cells: barrel cortex of C57BL/6J mice
Description: HDAC4 protein level in barrel cortex by Western blot. It counts as in vivo. Conditions: mice barrel cortex. For orientation: In western blotting, separated proteins are transferred to a membrane and probed.

A further data set deals with 293T cells. Description: Cytotoxicity test (CCK-8 cell viability) in 293T cells. Format: cell-based, human. In outline: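 293T cells plated 24 h, then exposed to serial compound concentrations for 24 h (six replicates). Viability by CCK-8 ([…], OD 450 nm), blank-subtracted and expressed as percent of vehicle control; IC50 calculated from these values.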

T1 sequence (Q6NZM9 whole entry): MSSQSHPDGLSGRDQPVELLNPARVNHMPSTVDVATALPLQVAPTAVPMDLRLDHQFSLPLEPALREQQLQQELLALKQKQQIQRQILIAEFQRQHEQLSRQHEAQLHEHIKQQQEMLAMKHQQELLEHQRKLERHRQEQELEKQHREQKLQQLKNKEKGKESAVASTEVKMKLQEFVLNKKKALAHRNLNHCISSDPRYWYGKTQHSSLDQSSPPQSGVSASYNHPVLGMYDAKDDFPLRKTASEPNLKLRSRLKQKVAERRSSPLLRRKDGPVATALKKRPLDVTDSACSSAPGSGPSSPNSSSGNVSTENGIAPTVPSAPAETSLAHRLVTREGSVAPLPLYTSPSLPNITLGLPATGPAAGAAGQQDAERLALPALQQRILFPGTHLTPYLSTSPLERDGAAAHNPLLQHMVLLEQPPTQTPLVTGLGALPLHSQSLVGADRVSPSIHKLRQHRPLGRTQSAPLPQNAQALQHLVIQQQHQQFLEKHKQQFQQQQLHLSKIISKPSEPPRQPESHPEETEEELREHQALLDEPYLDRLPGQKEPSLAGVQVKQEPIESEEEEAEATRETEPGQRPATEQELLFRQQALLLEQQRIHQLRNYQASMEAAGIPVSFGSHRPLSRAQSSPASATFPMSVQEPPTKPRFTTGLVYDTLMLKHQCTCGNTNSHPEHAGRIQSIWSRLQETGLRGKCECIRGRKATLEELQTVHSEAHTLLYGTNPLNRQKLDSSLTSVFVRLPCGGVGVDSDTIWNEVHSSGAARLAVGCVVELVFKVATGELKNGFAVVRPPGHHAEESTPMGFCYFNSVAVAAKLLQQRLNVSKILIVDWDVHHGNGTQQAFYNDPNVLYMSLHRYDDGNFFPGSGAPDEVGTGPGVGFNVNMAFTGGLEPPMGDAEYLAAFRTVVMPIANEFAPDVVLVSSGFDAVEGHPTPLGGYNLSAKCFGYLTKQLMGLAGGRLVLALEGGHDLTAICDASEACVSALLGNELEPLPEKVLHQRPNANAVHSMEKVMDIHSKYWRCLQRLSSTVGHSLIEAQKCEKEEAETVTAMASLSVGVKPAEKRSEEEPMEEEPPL

Consider `C[C@H]1CC[C@@H](C(=O)O)CN1C(=O)Cc1ccc(-c2cncnc2)cc1` [BnH12003, (3R,6S)-6-methyl-1-(2-(4-(pyrimidin-5-yl)phenyl)acetyl) piperidine-3-carboxylic acid], for which, in the data set on GluN2B, the GluN2B expression result is reported as “augmented”. Besides, the freezing time entry in data set [1] is “liberated such rodents from trauma at a significantly faster rate; also recorded: significant decrease in freezing time”. Besides, the HDAC4 protein expression entry at HDAC4 (intraperitoneal administration) and at HDAC4 (oral administration) was “significantly suppressed” each time. Further, the “duration of the inhibitory effect on HDAC4 protein expression” value on HDAC4 (oral and intraperitoneal administration) is on record as ≥ 10 days. The “Cell viability test results (CCK) 10 uM” value in the data set with 293T cells (293T cell line, 10 uM) is listed as 99%<. In the data set with 293T cells (293T cell line, 100 uM), the “Cell viability test results (CCK) 100 uM” value was determined as 90%<. For the same compound, the cell viability result in the data set with 293T cells (293T, 0, 0.1, 1, 10, 100 μM, 24 hours, CCK-8) is reported as “no significant change in cell viability”.
